Measurements as given in paper PMC9599461, “Stereoselectivity in the Membrane Transport of Phenylethylamine Derivatives by Human Monoamine Transporters and Organic Cation Transporters 1, 2, and 3” (Biomolecules, 2022).
Like-named read-outs stand apart in the source and are kept apart here.

Key:
DAT = DAT (Homo sapiens, UniProt Q01959); assay: Stereoselective uptake into DAT-overexpressing HEK293 cells; details: for Clint ± SEM / Stereoselectivity Vmax / Stereoselectivity Km: DAT; for Clint ± SEM: quotient of vmax over Km; for Stereoselectivity Vmax / Stereoselectivity Km: ratio between enantiomers; for Stereoselectivity Vmax: given as for (R) or for 1; for selectivity ratio at 2 min: human;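 as to all read-outs here: intracellular accumulation measured by chiral HPLC-MS/MS in stably transfected HEK293 cells, normalized to total protein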
Sequence of DAT (Q01959 whole entry): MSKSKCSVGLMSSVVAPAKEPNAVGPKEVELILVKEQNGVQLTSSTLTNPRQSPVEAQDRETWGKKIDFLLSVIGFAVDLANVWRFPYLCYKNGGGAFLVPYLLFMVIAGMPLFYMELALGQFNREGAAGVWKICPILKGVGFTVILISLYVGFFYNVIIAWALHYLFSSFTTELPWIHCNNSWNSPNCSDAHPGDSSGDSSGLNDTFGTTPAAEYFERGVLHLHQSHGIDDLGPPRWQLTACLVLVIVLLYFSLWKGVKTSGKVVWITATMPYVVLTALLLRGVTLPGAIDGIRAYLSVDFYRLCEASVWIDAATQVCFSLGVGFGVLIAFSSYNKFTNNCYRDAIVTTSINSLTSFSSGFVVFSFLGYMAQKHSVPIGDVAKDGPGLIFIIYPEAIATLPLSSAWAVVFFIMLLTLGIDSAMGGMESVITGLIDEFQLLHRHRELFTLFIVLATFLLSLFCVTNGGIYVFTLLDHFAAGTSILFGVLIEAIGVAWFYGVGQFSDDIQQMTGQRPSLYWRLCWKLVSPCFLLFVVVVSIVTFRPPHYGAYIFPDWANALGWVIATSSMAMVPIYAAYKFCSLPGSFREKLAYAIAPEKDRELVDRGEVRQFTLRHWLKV

SERT [1] = biological target: T1, SERT (Homo sapiens, UniProt P31645); assay: in vitro;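 also: uptake into HEK293 cells stably expressing human SERT over 2 min, enantiomers measured in cell lysate by chiral HPLC-MS/MS, normalized to total protein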
T1 sequence (P31645 whole entry): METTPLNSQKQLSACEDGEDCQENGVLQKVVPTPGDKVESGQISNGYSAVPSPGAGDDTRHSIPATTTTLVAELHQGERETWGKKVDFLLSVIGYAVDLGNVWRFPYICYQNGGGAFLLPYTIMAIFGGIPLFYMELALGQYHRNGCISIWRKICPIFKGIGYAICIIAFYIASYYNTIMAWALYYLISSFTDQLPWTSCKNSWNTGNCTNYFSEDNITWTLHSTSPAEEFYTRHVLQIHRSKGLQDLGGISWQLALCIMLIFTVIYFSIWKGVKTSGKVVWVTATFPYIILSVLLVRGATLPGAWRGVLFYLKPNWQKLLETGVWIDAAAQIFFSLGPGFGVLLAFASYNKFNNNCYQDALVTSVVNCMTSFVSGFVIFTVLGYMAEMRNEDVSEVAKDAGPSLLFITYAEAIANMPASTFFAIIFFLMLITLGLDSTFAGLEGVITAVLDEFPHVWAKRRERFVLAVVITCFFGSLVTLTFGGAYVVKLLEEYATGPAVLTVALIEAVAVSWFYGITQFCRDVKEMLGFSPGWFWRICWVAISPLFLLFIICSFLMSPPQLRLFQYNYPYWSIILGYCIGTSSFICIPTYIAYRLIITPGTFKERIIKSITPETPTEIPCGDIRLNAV

OCT2 = biological target: T2, OCT2 (Homo sapiens, UniProt O15244); assay: Stereoselective uptake into OCT2 (wild-type)-overexpressing HEK293 cells; details: OCT2; for Clint ± SEM: quotient of vmax over Km; for selectivity ratio at 2 min: human, ratio between enantiomers
T2 sequence (O15244 1-555 S270A): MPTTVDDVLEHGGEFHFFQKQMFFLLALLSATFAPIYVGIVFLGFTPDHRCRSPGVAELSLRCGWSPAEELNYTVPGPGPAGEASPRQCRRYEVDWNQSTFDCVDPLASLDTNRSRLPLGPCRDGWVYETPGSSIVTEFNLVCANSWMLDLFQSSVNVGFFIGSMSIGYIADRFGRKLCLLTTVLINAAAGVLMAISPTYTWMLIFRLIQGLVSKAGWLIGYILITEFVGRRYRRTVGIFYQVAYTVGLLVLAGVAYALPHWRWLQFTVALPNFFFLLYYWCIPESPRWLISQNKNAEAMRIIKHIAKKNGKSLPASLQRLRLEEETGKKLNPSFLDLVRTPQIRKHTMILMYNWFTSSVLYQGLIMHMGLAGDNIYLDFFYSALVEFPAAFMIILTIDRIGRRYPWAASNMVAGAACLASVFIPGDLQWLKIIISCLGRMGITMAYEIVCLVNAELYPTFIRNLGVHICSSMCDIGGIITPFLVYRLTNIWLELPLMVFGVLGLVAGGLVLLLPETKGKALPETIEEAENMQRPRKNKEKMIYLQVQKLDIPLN

OCT1 = biological target: T3, OCT1 (Homo sapiens, UniProt O15245); assay: Stereoselective uptake into OCT1-overexpressing HEK293 cells; details: for Clint ± SEM: quotient of vmax over Km; for selectivity ratio at 2 min: human;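 as to all read-outs here: enantiomers quantified inside cells by chiral HPLC-MS/MS, uptake normalized to total protein from bicinchoninic acid assay, substrates applied in HBSS+ buffer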
T3 sequence (O15245 1-554): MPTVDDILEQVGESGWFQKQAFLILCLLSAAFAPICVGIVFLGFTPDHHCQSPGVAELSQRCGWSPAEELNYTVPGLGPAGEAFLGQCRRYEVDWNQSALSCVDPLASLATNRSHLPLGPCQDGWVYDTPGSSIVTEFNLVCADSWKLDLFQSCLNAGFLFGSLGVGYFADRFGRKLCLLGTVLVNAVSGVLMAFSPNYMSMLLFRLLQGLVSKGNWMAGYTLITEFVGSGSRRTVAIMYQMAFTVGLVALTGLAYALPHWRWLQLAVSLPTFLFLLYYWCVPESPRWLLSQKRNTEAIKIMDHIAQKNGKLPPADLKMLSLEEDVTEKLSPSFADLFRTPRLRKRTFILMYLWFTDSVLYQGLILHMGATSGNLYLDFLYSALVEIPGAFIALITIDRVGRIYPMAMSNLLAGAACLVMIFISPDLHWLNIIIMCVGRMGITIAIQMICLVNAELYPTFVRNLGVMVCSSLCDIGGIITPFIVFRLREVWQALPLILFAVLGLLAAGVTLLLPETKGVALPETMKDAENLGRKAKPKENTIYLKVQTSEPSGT

OCT3 = biological target: T4, OCT3 (Homo sapiens, UniProt O75751); assay: Stereoselective uptake into OCT3-overexpressing HEK293 cells; details: for Clint ± SEM / Stereoselectivity Vmax / Stereoselectivity Km: OCT3; for Clint ± SEM: quotient of vmax over Km; for Stereoselectivity Vmax / Stereoselectivity Km: ratio between enantiomers; for Stereoselectivity Vmax: given as for (R) or for 1; for Stereoselectivity Km: given as for (R) or for 1 (first-eluting); for selectivity ratio at 2 min: human;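 as to all read-outs here: intracellular accumulation in HEK293 cells measured by chiral HPLC-MS/MS after a 2 min substrate exposure at 37 °C, uptake normalized to total protein (bicinchoninic acid assay)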
T4 sequence (O75751 1-556): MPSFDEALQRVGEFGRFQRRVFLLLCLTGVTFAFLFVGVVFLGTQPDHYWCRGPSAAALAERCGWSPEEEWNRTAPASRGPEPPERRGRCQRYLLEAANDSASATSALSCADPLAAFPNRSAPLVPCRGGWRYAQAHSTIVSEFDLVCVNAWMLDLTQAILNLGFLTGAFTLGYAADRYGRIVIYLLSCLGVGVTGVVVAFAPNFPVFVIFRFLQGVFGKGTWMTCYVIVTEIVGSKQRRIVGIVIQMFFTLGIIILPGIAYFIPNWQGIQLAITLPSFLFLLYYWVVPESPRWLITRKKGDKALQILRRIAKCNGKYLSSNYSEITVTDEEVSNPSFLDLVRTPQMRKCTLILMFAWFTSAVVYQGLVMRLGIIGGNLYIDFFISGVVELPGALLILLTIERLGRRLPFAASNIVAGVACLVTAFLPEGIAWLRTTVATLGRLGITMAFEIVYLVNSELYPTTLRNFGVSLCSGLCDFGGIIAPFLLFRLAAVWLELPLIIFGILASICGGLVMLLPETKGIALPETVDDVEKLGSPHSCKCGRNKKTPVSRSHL

[2] = system: OCT2 wild-type versus A270S variant; assay: in vitro; details: human, Transporter selectivity, OCT2 wild-type versus A270S, 100 μM racemic substance, two minutes; given as for WT;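 also: uptake into HEK293 cells stably overexpressing human OCT2 variants, intracellular enantiomers quantified by chiral HPLC-MS/MS and normalized to total protein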
NET = NET (Homo sapiens, UniProt P23975); assay: Stereoselective uptake into NET-overexpressing HEK293 cells; details: for Clint ± SEM / Stereoselectivity Vmax / Stereoselectivity Km: NET; for Clint ± SEM: quotient of vmax over Km; for Stereoselectivity Vmax / Stereoselectivity Km: ratio between enantiomers; for Stereoselectivity Vmax: given as for (R) or for 1; for Stereoselectivity Km: given as for (S) or for 2 (second-eluting); for selectivity ratio at 2 min: human;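 as to all read-outs here: intracellular enantiomers quantified in cell lysates by chiral HPLC-MS/MS after a 2 min substrate incubation, with uptake normalized to total cellular protein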
Sequence of NET (P23975 whole entry): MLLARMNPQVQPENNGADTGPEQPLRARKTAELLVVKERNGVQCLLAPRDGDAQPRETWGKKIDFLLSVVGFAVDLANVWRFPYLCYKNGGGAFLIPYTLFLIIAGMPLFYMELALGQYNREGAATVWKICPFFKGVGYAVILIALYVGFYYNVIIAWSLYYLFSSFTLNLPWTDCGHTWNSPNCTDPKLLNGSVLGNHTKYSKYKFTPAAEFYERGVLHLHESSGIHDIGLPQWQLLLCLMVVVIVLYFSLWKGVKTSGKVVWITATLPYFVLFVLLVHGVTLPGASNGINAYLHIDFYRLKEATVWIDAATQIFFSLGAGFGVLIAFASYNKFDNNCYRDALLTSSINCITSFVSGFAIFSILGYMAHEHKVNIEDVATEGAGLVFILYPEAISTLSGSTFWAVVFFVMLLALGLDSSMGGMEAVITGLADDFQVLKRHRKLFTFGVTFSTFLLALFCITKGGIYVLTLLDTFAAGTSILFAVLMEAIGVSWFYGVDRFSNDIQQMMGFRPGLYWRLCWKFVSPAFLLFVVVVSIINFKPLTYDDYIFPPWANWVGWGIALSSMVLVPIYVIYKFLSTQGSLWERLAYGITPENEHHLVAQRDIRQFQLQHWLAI
Method: All transport experiments were carried out in HEK293 cells stably overexpressing human MATs or OCTs. […] All cells were regularly cultivated in DMEM supplemented with 10% (v/v) FCS, penicillin (100 U/mL) and streptomycin (100 μg/mL)and kept in culture for no longer than 30 passages.
For the uptake experiments, 300,000 cells were plated in poly-D-lysine precoated 24-well plates 48 h ahead of the transport experiment. On the day of experiment, cells were initially washed once with 37 °C pre-warmed HBSS+ (Hanks buffered salt solution supplemented with 10 mM HEPES) and subsequently incubated with the substrates dissolved in pre-warmed HBSS+ for exactly two minutes. Incubation was stopped by adding ice-cold HBSS+ followed by two washing steps. After this, cells were lysed with 80% acetonitrile containing 10 ng/mL milnacipran as internal standard for high-performance liquid chromatography coupled to tandem mass spectrometry (HPLC-MS/MS) analysis. For every experiment, two additional wells per cell line were lysed using RIPA buffer for protein quantification. Total protein was quantified using the bicinchoninic acid assay [42]. This was later used for normalization of the uptake data.
Intracellularly accumulated test substances were quantified by HPLC-MS/MS analysis using a Shimadzu Nexera HPLC system with a SIL-30AC autosampler, a CTO-20AC column oven, a LC-30AD pump, and a CBM-20A controller (Shimadzu, Kyoto, Japan). Stereoselective chromatography was carried out on a [sequence] CBH HPLC column (100 × 3 mm inner dimension with 5 μM particle size; Sigma-Aldrich, Darmstadt, Germany) with a corresponding 10 × 3 mm guard column. Reversed phased chromatography was carried out using an ammonium acetate (NH4Ac) buffered aqueous mobile phase with isopropyl alcohol (IPA) as organic solvent. […] The order of elution of the enantiomers was obtained from available reference literature [43] or by applying enantiopure reference compounds to the chiral HPLC. […] Given the structural similarity of the investigated substances and the fact that separation was performed on the same column with almost identical mobile phases, we assume that this order of elution for our compound set is always the (R)- before the (S)-enantiomer.
Detection was performed with an API 4000 tandem mass spectrometer (AB SCIEX, Darmstadt, Germany) operating in multiple-reaction-monitoring mode. Quantification was performed using the Analyst 1.6.2 software (AB SCIEX, Darmstadt, Germany) and quantified by comparison to standard curves with known concentrations.
All uptake data were normalized to protein content to account for variation in the number of seeded sells. Transporter-mediated net uptake was calculated by subtracting uptake into empty vector-transfected control cells from uptake into transporter-transfected cells. Kinetic parameters were then determined after non-linear regression following the Michaelis–Menten equation (v = vmax × [S]/(Km + [S])) using GraphPad Prism (Version 5.01 for Windows, GraphPad Software, La Jolla, CA, USA). Vmax refers to the maximum transport velocity and Km is defined as the substance concentration required to reach half of vmax. The intrinsic clearance Clint was calculated as the quotient of vmax over Km.

SERT [3] = biological target: T1, SERT; assay: Stereoselective uptake into SERT-overexpressing HEK293 cells; details: for Clint ± SEM: quotient of vmax over Km;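 as to all read-outs here: uptake into HEK293 cells stably expressing human SERT over 2 min, enantiomers measured in cell lysate by chiral HPLC-MS/MS, normalized to total protein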
[4] = given as for (S) or for 2 (second-eluting)
[5] = Stereoselectivity ClInt, given as for (S) or for 2
[6] = Stereoselectivity Km, given as for (R) or for 1 (first-eluting)
[7] = Stereoselectivity Vmax, given as for (R) or for 1
[8] = Stereoselectivity ClInt, OCT1, ratio between enantiomers, given as for (R) or for 1 (also 1.00-fold for 1/2)
[9] = Stereoselectivity Km, OCT1, ratio between enantiomers, given as for (S) or for 2 (second-eluting)
[10] = Stereoselectivity Vmax, OCT1, ratio between enantiomers, given as for (R) or for 1
[11] = SERT, ratio between enantiomers, given as for (S) or for 2
[12] = SERT, ratio between enantiomers, given as for (S) or for 2 (second-eluting)

| SMILES | Clint ± SEM (DAT) | Stereoselectivity Vmax (DAT) [fold] | selectivity ratio at 2 min (DAT) | selectivity ratio (SERT [1]) | Clint ± SEM (OCT2) | selectivity ratio at 2 min (OCT2; [5]) | selectivity ratio at 2 min (OCT2; [6]) | selectivity ratio at 2 min (OCT2; [7]) | Clint ± SEM (OCT1; OCT1) | selectivity ratio at 2 min (OCT1; [9]) | selectivity ratio at 2 min (OCT1; [10]) | Clint ± SEM (OCT3) | Stereoselectivity Vmax (OCT3) [fold] | Stereoselectivity Km (OCT3) [fold] | selectivity ratio at 2 min (OCT3) | selectivity ratio at 2 min, 100 μM [2] | Clint ± SEM (NET) | Stereoselectivity Vmax (NET) [fold] | selectivity ratio at 2 min (NET) | Clint ± SEM (SERT [3]; SERT) | other results |
| --- | --- | --- | --- | --- | --- | --- | --- | --- | --- | --- | --- | --- | --- | --- | --- | --- | --- | --- | --- | --- | --- |
| CNC[C@@H](O)c1ccc(O)cc1 [(S)-Synephrine] | 10.4 mL × g Protein^−1 × min^−1 | 1.84 | 2.23 | 1.13 | 24.8 mL × g Protein^−1 × min^−1 | 1.01 | 2.07 | 2.05 | 12.1 mL × g Protein^−1 × min^−1 | 1.28 | 1.35 | 27.8 mL × g Protein^−1 × min^−1 | 1.05 | 1.11 | 1.06 | 1.2 | 7.92 mL × g Protein^−1 × min^−1 | 1.80 | 4.7 | 0.61 mL × g Protein^−1 × min^−1 | Stereoselectivity Km (DAT; [4]): 1.21 fold; selectivity ratio at 2 min (OCT1; [8]): 1.73; Stereoselectivity Km (NET): 2.61 fold; Stereoselectivity Vmax (SERT [3]; [11]): 1.35 fold; Stereoselectivity Km (SERT [3]; [12]): 1.52 fold |
| CNC[C@H](O)c1ccc(O)cc1 [(R)-Synephrine] | 23.1 mL × g Protein^−1 × min^−1 | 1.84 | 2.23 | 1.13 | 24.6 mL × g Protein^−1 × min^−1 | 1.01 | 2.07 | 2.05 | 21.0 mL × g Protein^−1 × min^−1 | 1.28 | 1.35 | 26.3 mL × g Protein^−1 × min^−1 | 1.05 | 1.11 | 1.06 | 1.41 | 37.3 mL × g Protein^−1 × min^−1 | 1.80 | 4.7 | 0.69 mL × g Protein^−1 × min^−1 | Stereoselectivity Km (DAT; [4]): 1.21 fold; selectivity ratio at 2 min (OCT1; [8]): 1.73; Stereoselectivity Km (NET): 2.61 fold; Stereoselectivity Vmax (SERT [3]; [11]): 1.35 fold; Stereoselectivity Km (SERT [3]; [12]): 1.52 fold |
| CNC[C@H](O)c1cccc(O)c1 [(R)-Phenylephrine] | 17.2 mL × g Protein^−1 × min^−1 | 1.56 | 1.48 | 2.82 | 29.5 mL × g Protein^−1 × min^−1 | 1.02 | 1.89 | 2.04 | 9.79 mL × g Protein^−1 × min^−1 | 1.02 | 1.08 | 11.8 mL × g Protein^−1 × min^−1 | 3.33 | 1.19 | 2.79 | 1.27 | 75.5 mL × g Protein^−1 × min^−1 | 1.79 | 1.43 | 17.2 mL × g Protein^−1 × min^−1 | Stereoselectivity Km (DAT; given as for (R) or for 1 (first-eluting)): 1.06 fold; Vmax ± SEM (DAT; HEK293 cells overexpressing human DAT, racemic substrate, two minutes, net uptake): 613 pmol × mg Protein^−1 × min^−1; Km (DAT; read-out: Km ± SEM, HEK293 cells overexpressing human DAT, racemic substrate, two minutes, net uptake minus empty vector control): 35.6 µM; selectivity ratio at 2 min (OCT1; Stereoselectivity ClInt): 1.11; Vmax ± SEM (NET; HEK293 cells overexpressing human NET, racemic substrate, two minutes, net uptake): 392 pmol × mg Protein^−1 × min^−1; Km (NET; read-out: Km ± SEM, HEK293 cells overexpressing human NET, racemic substrate, two minutes, net uptake minus empty vector control): 5.12 µM; Stereoselectivity Km (SERT [3]): 1.89 fold; Stereoselectivity Vmax (SERT [3]): 1.49 fold; Vmax ± SEM (SERT [3]): 356; Km (SERT [3]; read-out: Km ± SEM, HEK293 cells overexpressing human SERT, racemic substrate, two minutes, net uptake minus empty vector control): 328 µM |
